In patent US6582662B1, “Devices and methods for the performance of miniaturized homogeneous assays” (Tecan Trading AG, priority 1999, dated 2003):

Biological target: alkaline phosphatase
Test: Enzyme inhibition assay on microfluidic disc (alkaline phosphatase / PNPP, reflectance at 430 nm)
Type: biochemical
Settings: end-point measurement 2 minutes after fluid pumped into detection chambers; dose-response fitted to Langmuir isotherm; substrate PNPP 0.5 mM; alkaline phosphatase 1 mg/mL; 0.1M glycine, 0.5 mM MgCl2; read-out: inhibition constant
Method: The platform shown in FIGS. 1 through 6 was used to perform 96 simultaneous enzyme inhibition assays as model homogeneous assays. In an enzyme inhibition assay, the effect of a compound present in a first fluid (“A”) upon the capacity of an enzyme present in a second fluid (fluid “B”) to catalyze a reaction, typically of a substrate in a third fluid (“C”) is determined. The reaction was chosen to give a change in a readily-measured parameter of the fluid, such as its optical density, or to produce a fluorescent moiety. When no inhibitor was present in fluid A, mixing solution A with enzyme solution B had no effect: enzyme activity detected in this assay was the maximum detected and provided the largest change in the measured parameter. However, if an inhibitor was present in fluid A, mixing fluid A with fluid B resulted, after a sufficient time in a chemical reaction or other change induced by the inhibitor in most or all of the enzyme molecules, rendering them incapable of catalyzing the desired reaction. If this solution was mixed with the substrate solution, little or no change in the measured parameter was seen.
The system chosen to model homogeneous assays consisted of theophylline as inhibitor, alkaline phosphatase as the enzyme, and p-nitrophenol phosphate (PNPP) as the substrate. […]

Compound: Cn1c(=O)c2[nH]cnc2n(C)c1=O [theophylline]
- Ki: 9.7 ± 0.9 mM
